# Test results from paper PMC3815476 (Biochemistry, 2013).
# Biological target: Shp (Streptococcus pyogenes, UniProt Q06A48, M66A)
# Assay: biochemical
compound,measurement,value
c1c[nH]cn1 [imidazole],Kd,210 ± 11 µM
